According to patent US12415939B2, “Nano-adhesive and surface primer compound and use thereof” (The Regents of the University of California, priority 2015, dated 2025):
Where “and” joins values, the source holds several entries; their conditions need not be identical. Equal entries are not always repeated.

Legend:
Assay type in all cases: physicochemical
[1] = Cyclic voltammetry of catechol oxidation; conditions: for E1/2: DI water, scan rate 1 mV s−1, Ag/AgCl reference
Method: (§1) Cyclic voltammetry was performed on a Versastat 3 potentiostat from Ametek Co. These analyses were carried out using a three-electrode cell: a Pt wire as the counter electrode, an Ag/AgCl reference electrode, and a Carbon paste electrode (CPE) served as the working electrode. CPE is the best choice for adhesive materials because of its ability to be completely polished before each experiment. Catechol auto-oxidation was avoided by performing all electrochemical experiments with degassed deionized water in a glove bag under argon. Scan rate 1 mV s-1 was used for all experiments. CV of 5 mM synthesized polymers and 5 mM methyl catechol, a simple catechol-containing compound, were compared. Oxidation of Catechol carrying molecules occurred at more positive potentials than methyl catechol, indicating the unique structure of the dispersions provide shielding effects that stabilized catechol groups (FIG. 3).
Cyclic voltammetry was performed on a Versastat 3 potentiostat from Ametek Co. (Berwyn, PA). These analyses were carried out using a three-electrode cell: a Pt wire as the counter electrode, an Ag/AgCl reference electrode, and a Carbon paste electrode (CPE) served as the working electrode. CPE is the best choice for adhesive materials because of its ability to be completely polished before each experiment.
as §1, with “s^−1” for “s-1”, “molecules” for “polymers”, “groups. Z-Cat-Ben with an oxidation peak at 840 mV is more resistant to oxidation than the other species” for “groups”, “42).” for “3).”

[2] = Surface forces apparatus (SFA) cohesion/adhesion between thin films on mica
[3] = Contact angle measurements on SAM-modified substrates; conditions: SAM-modified nano-grooved SiO2
Method: The nano-grooved SiO2 substrates passivated with Z-Cat-Ben or Z-Cat-Ben-F SAMs were prepared with the same procedure described above. For the reference substrate, the pre-cleaned and ultraviolet/ozone-treated (for 10 min) nano-grooved SiO2 substrate was passivated with n-decyltrichlorosilane (Gelest Inc.) in toluene solution (1% by volume) at 80° C. for 20 min in ambient air. Then, the substrate was subsequently sonicated in toluene and rinsed with additional toluene several times. Anhydrous chlorobenzene (50 μL) was used as a droplet dropping on the substrates. All contact angle images were taken at the direction perpendicular to nano-grooves in the substrates using Dataphysics OCA 15EC goniometer.

[4] = Z-Cat-C10 0.1 mg ml−1 sample in DI water

| oxidation peak ([1]; 5 mM in degassed DI water, 1 mV s−1) [mV] | E1/2 [1] [V] | hard-wall thickness ([2]; SAMs from 5 mM, mica) [nm] | molecular density on mica ([2]; from cohesion energy and π-π interaction) | contact angle θ of chlorobenzene droplet [3] | oxidation peak [1, 4] [mV] | reduction peak [1, 4] [mV] | thin film thickness ([2]; post-oxidation, crosslinked films) | SMILES | stability in water to oxidation (shelf life) ([1]; 5 mM in DI water) | effect of sodium periodate treatment on cohesion ([2]; 500 pmoles periodate) | cohesion energy Wc between SAMs ([2]; 5 mM in DI water, mica) | effect of aqueous Fe3+ on cohesion ([2]; CFe3+=10 M as printed) | cohesion energy Wc before and after periodate and iron treatments ([2]; SAMs on mica) [mJ/m^2] | adhesion on mica relative to mfp-5 and mfp-amyloid fusion protein [2] | increase in adhesion after asymmetric oxidation ([2]; after tc=60 min contact time) [%] | decrease in cohesion after symmetric periodate oxidation ([2]; contact times ≤tc=10 min, rebounded after tc=60 min) [%] | adhesion energy Wad after periodate oxidation ([2]; cross-linked films on mica, tc=12 h compressive contact) [mJ m^−2] | cohesion (or adhesion) energy Wc ([2]; symmetric films adsorbed from 5 mM, DI water, mica) [mJ m^−2] | work of adhesion before periodate ([2]; uncross-linked films on mica) [mJ m^−2] |
| --- | --- | --- | --- | --- | --- | --- | --- | --- | --- | --- | --- | --- | --- | --- | --- | --- | --- | --- | --- |
| 840 | 0.418 | ~1 | 1.07×10^18 molecules per m^2 | ≈ 1 ° | – | – | – | C[N+](C)(CCCc1ccccc1)CCOP(=O)([O-])OCCCc1ccc(O)c(O)c1 [Z-Cat-Ben] | stable (shelf life) in water to oxidation | same before and after | 19±3 mJ/m^2 and 18.7±2.8 mJ/m^2 | not affected | ~20 | – | – | – | – | – | – |
| – | ~0.25 | – | – | – | 530 | 316 | 2-4 nm | CN(C)CCOP(=O)(O)OCCCc1ccc(O)c(O)c1 [Z-Cat-C10] | – | – | – | – | – | 2-3 fold | 50 | 50 | ~50 | 10.1±2.3 | ~20 |
